Source: US20250171776A1, “NON-CANONICAL CELL-PENETRATING PEPTIDES FOR ANTISENSE OLIGOMER DELIVERY” (priority 2023, published 2025)
Where two headings read alike, the source gives them in different places. Where no end group is shown, it is not given here. [ ]: non-standard residue; d: D form. 2Nal = N[C@@H](Cc1ccc2ccccc2c1)C(=O)O; Cit = NC(=O)NCCC[C@H](N)C(=O)O; Api = NC1(C(=O)O)CCNCC1; Dab = NCC[C@H](N)C(=O)O; Iph = iodophenylalanine

How the values were obtained:
HeLa 654 cells [1] = test: HeLa 654 eGFP assay (flow cytometry, mean eGFP fluorescence, 22 h); assay type: cell-based; conditions: for PMO delivery: eGFP fluorescence relative to PMO alone: 20 μM, HeLa 654 cells, flow cytometry; for PMO delivery at varying concentrations (mean eGFP fluorescence relative to vehicle): 1, 2.5, 5, 10, 25 or 50 μM; for PMO response (mean eGFP fluorescence relative to vehicle): 2.5 μM, segment-CXP1 conjugates
Method: Purified constructs were then tested using an activity-based readout in which nuclear delivery results in fluorescence. Briefly, HeLa cells stably transfected with an Enhanced Green Fluorescent Protein (eGFP) gene interrupted by a mutated intron of β-globin (IVS2-654) produce a non-fluorescent eGFP protein. As used herein, Hela-654 cells refers to the Hela cells transfected with an Enhanced Green Fluorescent Protein (eGFP) gene interrupted by a mutated intron of β-globin (IVS2-654) and Hela-654 eGFP Assay is used to refer to an Assay that uses the Hela-654 cells. Successful delivery of PMO IVS2-654 to the nucleus results in corrective splicing and eGFP synthesis.
The amount of PMO delivered to the nucleus is therefore correlated with eGFP fluorescence, quantified by flow cytometry. Activity was reported as mean fluorescence intensity (MFI) relative to PMO alone. This activity assay provides indirect information on how much active PMO is delivered to the nucleus. Relative efficiency of a PMO-CPP conjugate was characterized by comparing activity to internal concentration.
[…] 18 h prior to treatment, the cells were plated at a density of 5,000 cells per well in a 96-well plate in DMEM supplemented with 10% FBS and 1% penicillin-streptomycin.
For individual peptide testing, PPMOs were dissolved in phosphate buffered saline (PBS) without Ca^2+ or Mg^2+ at a concentration of 1 mM (determined by UV absorbance of the PMO) before being diluted in Dulbecco's modified eagle medium (DMEM). Cells were incubated at the designated concentrations in triplicate for 22 h at 37° C. and 5% CO2. Next, the treatment media was removed, and the cells were washed once before being incubated with 0.25% Trypsin-EDTA for 15 min at 37° C. and 5% CO2. Lifted cells were transferred to a V-bottom 96-well plate and washed once with PBS, before being resuspended in PBS containing 2% FBS and 2 μg/mL propidium iodide (PI). Flow cytometry analysis was carried out on a BD LSRII flow cytometer. Gates were applied to the data to ensure that cells that were positive for propidium iodide or had forward/side scatter readings that were sufficiently different from the main cell population were excluded. Each sample was capped at 5,000 gated events.
Analysis was conducted using Graphpad Prism 7 and FlowJo. For each sample, the mean fluorescence intensity (MFI) and the number of gated cells were measured. To report activity, triplicate MFI values were averaged and normalized to the PMO alone condition.

HELA-654 cells = test: Hela-654 eGFP assay (incucyte imaging, GFP positive cells, 72 h); assay type: cell-based; conditions: for EC50: 72 h
Method: HELA-654 cells were imaged at 72 hours with an incucyte and the number of GFP positive cells versus total cell counts were calculated with the incucyte image analysis software. Statistical analysis was conducted using a one-way analysis of variance (ANOVA) test with Dunnett's multiple comparison test. Bars represent mean±standard deviation (SD), with P<0.05 was considered to indicate statistical significance, (**** p<0.0001, *** […], ** p<0.01, * p<0.05).
HELA-654 cells were imaged at 72 hours with an incucyte and the number of GFP positive cells versus total cell counts were calculated with the incucyte image analysis software.

HeLa 654 cells [2] = test: Lactate dehydrogenase (LDH) release assay in HeLa 654 cells; assay type: cell-based; conditions: 25 μM
Method: The media from the cells was analyzed for LDH release with an LDH assay and the percentage of LDH release was calculated relative to fully lysed cells.
Cytotoxicity assays were performed in HeLa 654 cells or TH-1 renal cells. TH-1 cells were maintained in DMEM supplemented with 10% (v/v) fetal bovine serum (FBS) and 1% (v/v) penicillin-streptomycin at 37° C. and 5% CO2H-1. Cells were plated at 5,000 cells/well in a 96-well plate 18-hours prior to treatment and treated with PMO-peptide compounds as described above. HeLa cell LDH assays were performed concurrently on the cells treated for Flow cytometry, so all plating and treatment protocols match those described above.
17 hours after cell treatment, the Promega CytoTox lysis solution was added to 3 wells of each plate as a fully lysed control (100% LDH-release). 18 hours after treatment, cell supernatant was transferred to a new 96-well plate for analysis of LDH release. To each well of the 96-well plate containing supernatant was added CytoTox 96 Reagent (Promega). […] Equal volume of Stop Solution was added to each well, mixed, and the absorbance of each well was measured at 490 nm. The measurement of vehicle-treated cells was subtracted from each measurement, and % LDH release was calculated as % cytotoxicity=100×Experimental LDH Release (OD490)/Maximum LDH Release (OD490).

eGFP-654 mice = test: eGFP-654 mouse study: GFP fluorescence in tissue homogenates; assay type: in vivo; conditions: 20 mg/kg intravenous, tissues collected weekly for 8 weeks
Method: The tissues from a series of organs were homogenized and GFP fluorescence was measured with a spectrophotometer and normalized to tissue quantity (FIG. 9-17). Median effective dose (ED50) was also derived from the dose-response curve. PMO-CXP1 compound exposure was calculated with an enzyme-linked oligonucleotide hybridization assay (ELOHA). Briefly, the ELOHA assay is a two-step hybridization assay where the analyte is bound to both an immobilized capture probe and biotinylated detection probe. Streptavidin-AP-conjugate is added to the mixture and AttoPhos substrate is added to the system and incubated for 10 minutes. Stop solution is added and the plate is read on the spectrophotometer. The compound concentrations were determined from a standard curve. […] Compound efficacy and exposure were calculated in the quadriceps (FIGS. 9-10), heart (FIGS. 11-12), diaphragm (FIGS. 13-14), and kidney (FIGS. 15-16). The compound was also found to have efficacy for up to 56 days in vivo (FIG. 17).
PPMOs at 3 mg/kg were intravenously delivered to eGFP-654 mice. […] The tissues were homogenized and GFP fluorescence measurements were read for a fluorescence spectrophotometer and normalized to tissue quantity to measure efficacy (FIGS. 26-29). Compound efficacy and exposure were calculated in the quadriceps (FIG. 26), heart (FIG. 27), diaphragm (FIG. 28), and kidney (FIG. 29).

[3] = chimeric peptide PMO conjugates, read-out: EC50 (at 72 h)
[4] = CXP1 analogs (unnatural amino acids replaced), read-out: EC50 (72 h)

Substance: Asn-Phe-Lys-Gln-Nap-His-Ala-Gly-Dab-Arg-Lys-Trp-Lys-Lys (NFKQ[2Nal]HAG[Dab]RKWKK; also: PMO conjugate) [PMO-CXP2]
- PMO delivery: eGFP fluorescence relative to PMO alone (HeLa 654 cells [1]): high levels of PMO delivery
- PMO delivery at varying concentrations (mean eGFP fluorescence relative to vehicle) (HeLa 654 cells [1]; 22 h): dose-dependent delivery of PMO
- EC50 (HELA-654 cells; read-out: EC50 (at 72 h)): 11.5 µM

Substance: Cit-Met-Phe-Gly-Pip-Dab-Dab-Lys-Ala-Pro-Lys-Trp-Lys-Lys ([Cit]MFG[Api][Dab][Dab]KAPKWKK; also: PMO conjugate) [PMO-CXP4]
- PMO delivery: eGFP fluorescence relative to PMO alone (HeLa 654 cells [1]): high levels of PMO delivery
- PMO delivery at varying concentrations (mean eGFP fluorescence relative to vehicle) (HeLa 654 cells [1]; 22 h): dose-dependent delivery of PMO
- EC50 (HELA-654 cells; read-out: EC50 (at 72 h)): 4.57 µM

Substance: Iph-Gly-Arg-Gly-Pip-Lys-Gln-Lys-Thr-Ser-Iph-Gly-Arg-Gly-Pip-Lys-Trp-Lys-Lys ([Iph]GRG[Api]KQKTS[Iph]GRG[Api]KWKK; also: PMO conjugate) [SA-CXP1]
- PMO response (mean eGFP fluorescence relative to vehicle) (HeLa 654 cells [1]; 22 h): highest PMO response compared to the other segment-CXP1 sequences
- EC50 (HELA-654 cells; [3]): 1.57 µM
- Toxicity: LDH release (HeLa 654 cells [2]): toxicity closest to the parent CXP1-CXP1 peptide

Substance: Lys-Gln-Lys-Thr-Ser-Iph-Gly-Arg-Gly-Pip-Lys-Trp-Lys-Lys (KQKTS[Iph]GRG[Api]KWKK-NH2; also: PMO conjugated via DBCO linker) [PMO-CXP1]
- PMO delivery: eGFP fluorescence relative to PMO alone (HeLa 654 cells [1]): high levels of PMO delivery
- PMO delivery at varying concentrations (mean eGFP fluorescence relative to vehicle) (HeLa 654 cells [1]; 22 h): dose-dependent delivery of PMO
- EC50 (HELA-654 cells; read-out: EC50 (at 72 h)): 7.08 µM
- Duration of efficacy in vivo (eGFP-654 mice): up to 56 days

Substance: Lys-Gln-Lys-Thr-Ser-Iph-Gly-Arg-Gly-Pip-Lys-Trp-Lys-Lys-Gly-Lys-Gln-Lys-Thr-Ser-Iph-Gly-Arg-Gly-Pip-Lys-Trp-Lys-Lys (KQKTS[Iph]GRG[Api]KWKKGKQKTS[Iph]GRG[Api]KWKK; not fully specified (C-terminus); printed as Lys-Gln-Lys-Thr-Ser-Iph-Gly-Arg-Gly-Pip-Lys-Trp-Lys-Lys-Gly-Lys-Gln-Lys-Thr-Ser-Iph-Gly-Arg-Gly-Pip-Lys-Trp-Lys-Lys; also: PMO IVS2-654 conjugate) [PMO-CXP1-CXP1]
- EC50 (HELA-654 cells; [3]): 1.07 µM

Substance: Lys-Gln-Lys-Thr-Ser-Iph-Gly-Iph-Gly-Pip-Lys-Trp-Lys-Lys (KQKTS[Iph]G[Iph]G[Api]KWKK; not fully specified (C-terminus); printed as Lys-Gln-Lys-Thr-Ser-Iph-Gly-Iph-Gly-Pip-Lys-Trp-Lys-Lys; also: PMO conjugate) [PMO-CXP1S]
- Percentage of GFP Positive Cells at 72 hours (30 μM) (HELA-654 cells; Iph scan, 30 μM of compound, 72 hours): 82.3%

Substance: Lys-Gln-Lys-Thr-Ser-Iph-Gly-Lys-Gly-Pip-Lys-Trp-Lys-Lys (KQKTS[Iph]GKG[Api]KWKK; not fully specified (C-terminus); printed as Lys-Gln-Lys-Thr-Ser-Iph-Gly-Lys-Gly-Pip-Lys-Trp-Lys-Lys; also: PMO conjugate) [PMO-CXP1AA]
- EC50 (HELA-654 cells; [4]): 13.1 µM

Substance: Lys-Gln-Lys-Thr-Ser-Lys-Gln-Lys-Thr-Ser-Iph-Gly-Arg-Gly-Pip-Lys-Trp-Lys-Lys (KQKTSKQKTS[Iph]GRG[Api]KWKK; not fully specified (C-terminus); printed as Lys-Gln-Lys-Thr-Ser-Lys-Gln-Lys-Thr-Ser-Iph-Gly-Arg-Gly-Pip-Lys-Trp-Lys-Lys; also: PMO conjugate) [SC-CXP1]
- EC50 (HELA-654 cells; [3]): 4.01 µM

Substance: Lys-Gln-Lys-Thr-Ser-Phe-Gly-Arg-Gly-Lys-Lys-Trp-Lys-Lys (KQKTSFGRGKKWKK; also: PMO conjugate) [PMO-CXP1Z]
- EC50 (HELA-654 cells; [4]): 21.1 µM

Substance: Lys-Gln-Lys-Thr-Ser-Phe-Gly-Arg-Gly-Pip-Lys-Trp-Lys-Lys (KQKTSFGRG[Api]KWKK; not fully specified (C-terminus); printed as Lys-Gln-Lys-Thr-Ser-Phe-Gly-Arg-Gly-Pip-Lys-Trp-Lys-Lys; also: PMO conjugate) [PMO-CXP1X]
- EC50 (HELA-654 cells; [4]): 17.4 µM

Substance: Lys-Thr-Ser-Iph-Gly-Arg-Lys-Gln-Lys-Thr-Ser-Iph-Gly-Arg-Gly-Pip-Lys-Trp-Lys-Lys (KTS[Iph]GRKQKTS[Iph]GRG[Api]KWKK; not fully specified (C-terminus); printed as Lys-Thr-Ser-Iph-Gly-Arg-Lys-Gln-Lys-Thr-Ser-Iph-Gly-Arg-Gly-Pip-Lys-Trp-Lys-Lys; also: PMO conjugate) [SB-CXP1]
- PMO response (mean eGFP fluorescence relative to vehicle) (HeLa 654 cells [1]; 22 h): highest PMO response compared to the other segment-CXP1 sequences
- EC50 (HELA-654 cells; [3]): 2.08 µM

Substance: Lys-Thr-Ser-Iph-Gly-Arg-Lys-Gln-Lys-Thr-Ser-Iph-Gly-Arg-Lys-Trp-Lys-Lys (KTS[Iph]GRKQKTS[Iph]GRKWKK; not fully specified (N-terminus, C-terminus); printed as Lys-Thr-Ser-Iph-Gly-Arg-Lys-Gln-Lys-Thr-Ser-Iph-Gly-Arg-Lys-Trp-Lys-Lys; also: PMO IVS2-654 conjugate) [CXD1A]
- PMO delivery (mean eGFP fluorescence relative to vehicle) (HeLa 654 cells [1]; 1 μM, 22 h): high PMO delivery
- EC50 (HELA-654 cells; [3]): 3.35 µM

Substance: Lys-Trp-Lys-Lys-Gln-Lys-Thr-Ser-Iph-Gly-Arg-Gly-Pip-Lys-Trp-Lys-Lys (KWKKQKTS[Iph]GRG[Api]KWKK; not fully specified (N-terminus, C-terminus); printed as Lys-Trp-Lys-Lys-Gln-Lys-Thr-Ser-Iph-Gly-Arg-Gly-Pip-Lys-Trp-Lys-Lys; also: PMO conjugate) [SD-CXP1]
- EC50 (HELA-654 cells; [3]): 2.28 µM

Substance: [Dab]VARNN[Dab]TKGKWKK [PMO-CXP3]
- PMO delivery: eGFP fluorescence relative to PMO alone (HeLa 654 cells [1]): high levels of PMO delivery
- PMO delivery at varying concentrations (mean eGFP fluorescence relative to vehicle) (HeLa 654 cells [1]; 22 h): dose-dependent delivery of PMO
- EC50 (HELA-654 cells; read-out: EC50 (at 72 h)): 13.8 µM
